One assay addresses wild-type BRAF enzyme (Homo sapiens (Human), UniProt P15056). As to the kind of experiment: RAF inhibition assay (TB-PMAP2K1 kit), wild-type BRAF. To be noted: FLUORESCEIN-MAP2K1 substrate, 60 min reaction. The format is biochemical. On the procedure:
Assay protocol: the inhibitory effects of the compounds of the present invention on the wild-type BRAF enzyme, mutant CRAF enzyme (RAF1 Y340D and Y341D) and mutant BRAF enzyme (BRAF-V600E) activity were determined according to the instructions of the TB-PMAP2K1 (PSER217/221) kit (ThermoFisher). Different RAF enzymes and substrates (FLUORESCEIN-MAP2K1) were pre-incubated with test compounds at various concentrations at room temperature for 15 min, and then the adenosine triphosphate (ATP) was added to initiate the reaction. After incubation at room temperature for 60 min, EDTA and Tb-labeled anti-pMAP2K1 [pS217/221] antibody solutions were added, and incubation was performed at room temperature for 60 min before the detection of the fluorescence values of the compounds in each group. With the vehicle group (DMSO) as the negative control and the buffer group (without RAF enzyme) as the blank control, the relative inhibitory activity percentage (i.e., the inhibition rate) of a compound at different concentrations was calculated according to the following formula:
Relative inhibitory activity percentage=1−(Compound group at various concentrations−blank control)/(negative control−blank control)*100%
The relative inhibitory activity percentages of the compounds at different concentrations were plotted against the compound concentrations, the curve was fitted according to a four-parameter model, and the IC50 value was calculated according to the following formula:
y=min+(max−min)/(1+(x/IC50)^(−Hillslope))
wherein y is the relative inhibitory activity percentage, max and min are respectively the maximum and minimum values of the fitted curve, x is the logarithm concentration of the compound, and Hillslope is the slope of the curve.

Assay [1] relates to human melanoma cell A375 (BRAF-V600E mutation). As to the kind of experiment: Cancer cell proliferation inhibition assay, A375. The format is cell-based. To be noted: A-375, 72 h incubation, Cell Titer Glo. An excerpt:
(§1) The inhibitory effects of the compounds of the present invention on cancer cell proliferation were further evaluated by testing the effects of the compounds of the present invention on the growth of cancer cells.
(§2) In this example, human melanoma cell A375 (BRAF-V600E mutation, purchased from the Cell Bank of the Chinese Academy of Sciences) and human hepatocellular carcinoma cell HepG2 (NRAS-Q61K mutation, purchased from ATCC, USA) were employed.
(§3) In this example, the test compounds at various concentrations (100000 nM, 30000 nM, 10000 nM, 3000 nM, 1000 nM, 300 nM, 100 nM, 30 nM, 10 nM) were added to the above cells, and the incubation was performed for 72 h. The inhibitory activity of the compounds was tested by measuring ATP in living cells using the Cell Titer Glo Kit (Promega).
(§4) The IC50 values of the compounds of the present invention for each tested cell were determined, and the test results are as follows: […]

The test system of assay [2] is human hepatocellular carcinoma cell HepG2 (NRAS-Q61K mutation). Briefly: Cancer cell proliferation inhibition assay, HepG2. The note with it: 72 h incubation, Cell Titer Glo. The format is cell-based.
Description: as §1, §2, §3, §4

Each structure is given as a SMILES string.

wild-type BRAF enzyme, sequence (P15056 whole entry): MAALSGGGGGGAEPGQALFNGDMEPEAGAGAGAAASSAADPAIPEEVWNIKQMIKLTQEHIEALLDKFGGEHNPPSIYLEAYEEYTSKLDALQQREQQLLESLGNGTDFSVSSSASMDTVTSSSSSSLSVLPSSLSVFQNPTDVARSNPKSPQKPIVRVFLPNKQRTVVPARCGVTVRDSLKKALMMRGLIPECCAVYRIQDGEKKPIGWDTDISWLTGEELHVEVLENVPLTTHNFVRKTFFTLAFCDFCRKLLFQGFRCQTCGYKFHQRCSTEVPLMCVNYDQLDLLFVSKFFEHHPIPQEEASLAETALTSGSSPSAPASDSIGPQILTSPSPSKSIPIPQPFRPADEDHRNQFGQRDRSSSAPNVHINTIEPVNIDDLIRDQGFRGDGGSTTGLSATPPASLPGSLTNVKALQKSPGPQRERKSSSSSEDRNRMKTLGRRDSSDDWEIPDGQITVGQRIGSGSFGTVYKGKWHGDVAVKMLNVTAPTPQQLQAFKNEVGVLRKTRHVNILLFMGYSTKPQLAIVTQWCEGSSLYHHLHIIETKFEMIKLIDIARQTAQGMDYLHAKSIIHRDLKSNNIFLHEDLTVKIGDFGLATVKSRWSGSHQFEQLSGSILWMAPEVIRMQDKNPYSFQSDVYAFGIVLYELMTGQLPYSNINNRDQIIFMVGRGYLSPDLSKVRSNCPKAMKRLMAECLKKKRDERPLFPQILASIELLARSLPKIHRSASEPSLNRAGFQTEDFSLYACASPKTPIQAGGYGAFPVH

Turning to `Cc1ccc2c(C(C)Oc3ccccc3)nccc2c1NC(=O)c1csc2c(N)ncnc12` (stereo not shown) [Compound 35, 4-amino-N-(6-methyl-1-(1-phenoxyethyl)isoquinolin-5-yl)thieno[3,2-d]pyrimidine-7-carboxamide], inhibition on wild-type BRAF enzyme was half-maximal at 125 ± 3.5 nM (IC50).
Consider `Cc1ccc2c(Nc3cccc(Cl)c3F)nccc2c1NC(=O)c1cncc2c(N)ncnc12` [Compound 69, 4-amino-N-(1-((3-chloro-2-fluorophenyl)amino)-6-methylisoquinolin-5-yl)pyrido[4,3-d]pyrimidine-8-carboxamide], for which the IC50 in assay [1] is 94.6 ± 4 nM; in assay [2] it was 49.6 ± 9.7 nM.
The like results for `COc1ccc(F)c(Nc2nccc3c(NC(=O)c4cccc5c(N)ncnc45)c(C)ccc23)c1` [Compound 87, 4-amino-N-(1-((2-fluoro-5-methoxyphenyl)amino)-6-methylisoquinolin-5-yl)quinazoline-8-carboxamide] were, in that order, 56 ± 2.5 nM and 37.7 ± 7.05 nM.
In the case of `Cc1ccc2c(Nc3cccc(C#N)c3F)nccc2c1NC(=O)c1cccc2c(N)ncnc12` [Compound 83, 4-amino-N-(1-((3-cyano-2-fluorophenyl)amino)-6-methylisoquinolin-5-yl)quinazoline-8-carboxamide], the IC50 in assay [1] came to 61.9 ± 6.7 nM; in assay [2], 50.5 ± 8.48 nM.
For the compound `Cc1ccc2c(Nc3cccc(Cl)c3F)nccc2c1NC(=O)c1cc(OCCN2CCOCC2)cc2c(N)ncnc12` [Compound 79, 4-amino-N-(1-((3-chloro-2-fluorophenyl)amino)-6-methylisoquinolin-5-yl)-6-(2-morpholinoethoxy)quinazoline-8-carboxamide], the IC50 in assay [1] was 72.2 ± 13 nM; in assay [2], 145 ± 12.3 nM.
For `Cc1cc(C(=O)Nc2c(C)ccc3c(Nc4cccc(Cl)c4F)nccc23)c2ncnc(N)c2c1` [Compound 45, 4-amino-N-(1-((3-chloro-2-fluorophenyl)amino)-6-methylisoquinolin-5-yl)-6-methylquinazoline-8-carboxamide], the IC50 in assay [1] was found to be 74.2 ± 3.5 nM; in assay [2], 64.3 ± 5.08 nM.
Take `Cc1ccc2c(C(O)c3ccc(Cl)cc3F)nccc2c1NC(=O)c1csc2c(N)ncnc12` (stereo not shown) [Compound 28, 4-amino-N-(1-((4-chloro-2-fluorophenyl)(hydroxy)methyl)-6-methylisoquinolin-5-yl)thieno[3,2-d]pyrimidine-7-carboxamide]: the IC50 in assay [1] came to 98.8 ± 10.2 nM; at wild-type BRAF enzyme it was 9.43 ± 0.76 nM.
Consider `Cc1ccc2c(Nc3cccc(Cl)c3F)nccc2c1NC(=O)c1cc(OCCO)cc2c(N)ncnc12` [Compound 86, 4-amino-N-(1-((3-chloro-2-fluorophenyl)amino)-6-methylisoquinolin-5-yl)-6-(2-hydroxyethoxy)quinazoline-8-carboxamide], for which the figures for the IC50 in assay [1] and in assay [2] were 60.6 ± 2.8 nM and 48 ± 5.36 nM, respectively.
`Cc1ccc2c(C(=O)c3cccc(C(F)(F)F)c3)nccc2c1NC(=O)c1csc2c(N)ncnc12` [Compound 22, 4-amino-N-(6-methyl-1-(3-(trifluoromethyl)benzoyl)isoquinolin-5-yl)thieno[3,2-d]pyrimidine-7-carboxamide] returned a 50% inhibitory concentration (IC50) at wild-type BRAF enzyme of 50.2 ± 8.47 nM.
As to `Cc1ccc2c(Nc3ccc(F)c(Cl)c3)nccc2c1NC(=O)c1cnc2c(N)ncnn12` [Compound 58, 4-amino-N-(1-((3-chloro-4-fluorophenyl)amino)-6-methylisoquinolin-5-yl)imidazo[2,1-f][1,2,4]triazine-7-carboxamide], the IC50 amounted to 10.8 ± 1.09 nM on wild-type BRAF enzyme and 37.6 ± 3.34 nM in assay [2].
On to `Cc1ccc2c(Nc3ccc4c(c3)CN(C)CC4)nccc2c1NC(=O)c1cccc2c(N)ncnc12` [Compound 82, 4-amino-N-(6-methyl-1-((2-methyl-1,2,3,4-tetrahydroisoquinolin-7-yl)amino)isoquinolin-5-yl)quinazoline-8-carboxamide], for which the IC50 in assay [1] came out at 141 ± 44.1 nM; in assay [2], 245 ± 27.3 nM.
In the case of `Cc1ccc2c(Nc3ccc(C#N)cc3F)nccc2c1NC(=O)c1cccc2c(N)ncnc12` [Compound 78, 4-amino-N-(1-((4-cyano-2-fluorophenyl)amino)-6-methylisoquinolin-5-yl)quinazoline-8-carboxamide], the IC50 in assay [1] came to 63.5 ± 2.6 nM; in assay [2], 56.4 ± 5.8 nM.
`COc1ccc(Nc2nccc3c(NC(=O)c4cnc5c(N)ncnn45)c(C)ccc23)cc1Cl` [Compound 56, 4-amino-N-(1-((3-chloro-4-methoxyphenyl)amino)-6-methylisoquinolin-5-yl)imidazo[2,1-f][1,2,4]triazine-7-carboxamide]: the figures for the IC50 in assay [1] and in assay [2] were 67 ± 7.3 nM and 22.2 ± 2.9 nM, respectively.
In the case of `Cc1ccc2c(Nc3ccc4c(c3)OCCO4)nccc2c1NC(=O)c1cccc2c(N)ncnc12` [Compound 77, 4-amino-N-(1-((2,3-dihydrobenzo[b][1,4]dioxin-6-yl)amino)-6-methylisoquinolin-5-yl)quinazoline-8-carboxamide], the IC50 in assay [1] was 31.6 ± 7.42 nM; in assay [2] it was 51.4 ± 8.5 nM.
With `Cc1ccc2c(Nc3ccc(Cl)c(CN(C)C)c3)nccc2c1NC(=O)c1cccc2c(N)ncnc12` [Compound 64, 4-amino-N-(1-((4-chloro-3-((dimethylamino)methyl)phenyl)amino)-6-methylisoquinolin-5-yl)quinazoline-8-carboxamide], the results for the IC50 in assay [1] and in assay [2] were 70.3 ± 8.5 nM and 75.2 ± 6.9 nM, respectively.
On to `Cc1ccc2c(Nc3cccc(Cl)c3F)nccc2c1NC(=O)c1nccc2c(N)ncnc12` [Compound 66, 4-amino-N-(1-((3-chloro-2-fluorophenyl)amino)-6-methylisoquinolin-5-yl)pyrido[3,4-d]pyrimidine-8-carboxamide], for which the IC50 was 166 ± 6.1 nM in assay [1] and 46.1 ± 9.6 nM in assay [2].
For the compound `Cc1ccc2c(Nc3cc(Br)ccc3F)nccc2c1NC(=O)c1cccc2c(N)ncnc12` [Compound 91, 4-amino-N-(1-((5-bromo-2-fluorophenyl)amino)-6-methylisoquinolin-5-yl)quinazoline-8-carboxamide], the IC50 was found to be 87.1 ± 10.4 nM in assay [1] and 140 ± 17 nM in assay [2].
With `COc1ccc(Nc2nccc3c(NC(=O)c4cccc5c(N)ncnc45)c(C)ccc23)cc1` [Compound 57, 4-amino-N-(1-((4-methoxyphenyl)amino)-6-methylisoquinolin-5-yl)quinazoline-8-carboxamide], the IC50 was 66.1 ± 17 nM in assay [1] and 24.3 ± 3.3 nM in assay [2].
Turning to `Cc1ccc2c(Nc3cccc(Cl)c3F)nccc2c1NC(=O)c1cnc2c(N)ncnn12` [Compound 30, 4-amino-N-(1-((3-chloro-2-fluorophenyl)amino)-6-methylisoquinolin-5-yl)imidazo[2,1-f][1,2,4]triazine-7-carboxamide], the IC50 came to 89.3 ± 11.3 nM in assay [1] and 13.3 ± 0.9 nM in assay [2].
On to `CC(=O)c1ccc(Nc2nccc3c(NC(=O)c4cccc5c(N)ncnc45)c(C)ccc23)cc1` [Compound 63, N-(1-((4-acetylphenyl)amino)-6-methylisoquinolin-5-yl)-4-aminoquinazoline-8-carboxamide], for which the IC50 in assay [1] is 46.3 ± 1.79 nM; in assay [2], 28.6 ± 2.7 nM.
For `Cc1ccc2c(Nc3ccnc(C(F)(F)F)c3)nccc2c1NC(=O)c1cccc2c(N)ncnc12` [Compound 71, 4-amino-N-(6-methyl-1-((2-(trifluoromethyl)pyridin-4-yl)amino)isoquinolin-5-yl)quinazoline-8-carboxamide], the IC50 in assay [1] turned out to be 170 ± 13.8 nM; in assay [2] it was 53 ± 9.7 nM.
Regarding `Cc1ccc2c(Nc3ccccc3F)nccc2c1NC(=O)c1cccc2c(N)ncnc12` [Compound 39, 4-amino-N-(1-((2-fluorophenyl)amino)-6-methylisoquinolin-5-yl)quinazoline-8-carboxamide], the half-maximal inhibitory concentration (IC50) on wild-type BRAF enzyme turned out to be 8.44 ± 2.46 nM; in assay [2] it was 27.1 ± 2.5 nM.
Consider `Cc1ccc2c(C(O)c3cccc(C(F)(F)F)c3)nccc2c1NC(=O)c1csc2c(N)ncnc12` (stereo not shown) [Compound 23, 4-amino-N-(1-(hydroxy(3-(trifluoromethyl)phenyl)methyl)-6-methylisoquinolin-5-yl)thieno[3,2-d]pyrimidine-7-carboxamide], for which the values for the IC50 (in assay [1]; against wild-type BRAF enzyme) were 64.7 ± 4.22 nM and 51.4 ± 1.64 nM, respectively.
For the compound `COc1ccc(Nc2nccc3c(NC(=O)c4cccc5c(N)ncnc45)c(C)ccc23)cc1OC` [Compound 68, 4-amino-N-(1-((3,4-dimethoxyphenyl)amino)-6-methylisoquinolin-5-yl)quinazoline-8-carboxamide], the IC50 in assay [1] turned out to be 104 ± 20.6 nM; in assay [2], 109 ± 12.2 nM.

For the origin of these results see patent US20230312556A1, “ARYLAMIDE COMPOUND, PHARMACEUTICAL COMPOSITION COMPRISING SAME, AND PREPARATION METHOD THEREFOR AND USE THEREOF” (SICHUAN KELUN-BIOTECH BIOPHARMACEUTICAL CO., LTD., priority 2020, published 2023).
